For one data set, the target named is hERG channel (Homo sapiens (Human), UniProt Q12809). Briefly: Evaluation of hERG current (whole-cell patch clamp). Type of data set: cell-based. The following applies: 10 μM, application for 10 minutes, n = 3, average ± standard error. How it is done: Evaluation of hERG Current
The hERG current was measured by a whole-cell method using a patch clamp system, where a cover glass on which hERG channel-expressing human embryonic kidney (HEK) 293 cells were seeded was placed on a perfusion bath and a perfusion solution was caused to flow. The change in the hERG channel-derived current caused by a pulse protocol (holding potential of −80 mV, depolarization pulse of +20 mV for 1.9 seconds, repolarization pulse of −50 mV for 2 seconds, stimulated at intervals of 15 seconds) of data acquisition/analysis software, pCLAMP9 (Axon Instruments, Inc.), was measured. The measurement conditions were a flow rate of about 1.5 mL/min and a temperature of about 33° C. Two wave forms just before applying the test compound and two wave forms immediately after the application for 10 minutes were analyzed, and the statistical analysis was performed. The value before the application of the test compound was regarded as 100%, and the change rate based on the value was determined.
In the table. Ex. No. means the Example number, and the value is the average±the standard error.
A general note: The hERG channel carries a current that helps repolarise heart muscle cells.

A short description of data set [1]: Measurement of drug concentrations in the brain after foot-tapping test. Type of data set: in vivo. The following applies: male; 0.3 mg/kg iv, after foot-tapping was finished, gerbil brain; read-out: Conc. (drug concentration in the brain). How it is done: A male gerbil (Japan SLC) was anesthetized with isoflurane, and 0.3 mg/kg of a test compound was administered from the jugular vein. After four hours, GR73632 (5 pmol/5 μl), which is an NK1 receptor agonist, was administered into the cerebral ventricle at the part 1 mm lateral to and 4.5 mm below the bregma in the head, under anesthesia with isoflurane. After the administration, the gerbil was moved to an observation cage, and the foot-tapping period during five minutes after the recovery of the righting reflex was measured. The foot-tapping inhibition rate (%) of each test compound was calculated by the following equation. Foot-tapping inhibition rate (%)={1−(Foot-tapping period when test compound was administered)/(Foot-tapping period when solvent was administered)}×100 (2) Measurement of Drug Concentrations
After foot-tapping was finished, laparotomy was performed immediately under anesthesia with ether, and a blood sample was taken from the abdominal vena cava. At the same time, the brain was extracted. Through a quantitative analysis using liquid chromatography-mass spectrometry (LC/MS), the concentrations of the test compound in the plasma and the brain were measured.
In the table, Ex. No. means the Example number. Inhibition (%) is the foot-tapping inhibition rate, and Conc. (nM) is the drug concentration in the brain.

The next data set concerns the target human NK1 receptor (Homo sapiens (Human), UniProt P25103). Briefly: Affinity for human NK1 receptor (125I-substance P receptor binding test). The following applies: membrane fraction of human NK1 receptor-expressing 293T cells; read-out: IC50 (concentration required for 50% inhibition of 125I-substance P binding). How it is done:
Affinity for Human NK1 Receptor
(3) Measurement of Binding Affinity to Human NK1 Receptor
(3-1) Preparation of Membrane Fraction from Human NK1 Receptor-expressing Cells
Human NK1 receptor-expressing cells were prepared in a 175 cm^2 culture flask (Nippon Becton Dickinson). The formation of a complex of the human NK1 receptor expression plasmid and Lipofectamine 2000 was performed by calculating the culture area ratio and increasing the scale of the method described in the above 2-4 by the ratio. The human NK1 receptor-expressing cells were collected in a buffer solution for the membrane fraction preparation (50 mM Tris (Wako Pure Chemical). 120 mM sodium chloride (Wako Pure Chemical Industries), 5 mM potassium chloride (Wako Pure Chemical Industries), 1 mM ethylenediaminetetraacetic acid (Sigma), 0.002 mg/mL chymostatin (Peptide Institute), 0.04 mg/ bacitracin (Wako Pure Chemical Industries), 0.005 mg/mL phosphoramidon (Peptide Institute) and 0.5 mM phenylmethylsulfonyl fluoride (Wako Pure Chemical Industries), pH7.4) and centrifuged at 1,880 g for 10 minutes, and the cell sediment was suspended in the buffer solution for the membrane fraction preparation. After freezing and thawing the cells once, the cells were homogenized using a Dounce-type homogenizer (cooled on ice, 1000 rpm, 20 times). The homogenized cell suspension was centrifuged at 20,000 rpm for 10 minutes, and the supernatant was removed to obtain cell sediment. The cell sediment was suspended again in the buffer solution for the membrane fraction preparation and homogenized using a Dounce-type homogenizer (cooled on ice, 1000 rpm, 30 times). The cell suspension was centrifuged at 20,000 rpm for 10 minutes, and the supernatant was removed to obtain cell sediment. The same homogenization and centrifugation were repeated again, and final cell sediment was obtained. The final cell sediment was suspended in a buffer solution for the receptor binding test (50 mM Tris (Wako Pure Chemical Industries), 3 mM manganese chloride (Wako Pure Chemical Industries), 0.002 mg/mL chymostatin (Peptide Institute), 0.04 mg/bacitracin (Wako Pure Chemical Industries) and 0.02% bovine serum albumin (Sigma), pH 7.4), and the protein concentration was measured using BCA Protein Assay Kit (Pierce).
(3-2) Receptor Binding Test
The buffer solution for the receptor binding test was dispensed to the wells of a 96-well assay plate (Greiner) at 22.5 μL/well. DMSO solutions of a test compound, which were prepared at an 80-time higher concentration using 100% dimethyl sulfoxide (DMSO), were added to the wells at 2.5 μL/well (final concentrations of 1 nM to 100 nM), and the solutions were mixed. As a radiolabeled ligand, ^125I-substance P (Substance P, [^125I]Tyr^8-, PerkinElmer) was used. ^125I-substance P was diluted with the buffer solution for the receptor binding test to a concentration resulting in […] and added to the 96-well assay plate, and the solutions were mixed. The membrane fraction prepared from the human NK1 receptor-expressing cells was diluted with the buffer solution for the receptor binding test to a concentration resulting in 8 to 10 μg/well, suspended until the suspension became in such a homogenous state that the suspension could flow through as 27G injection needle smoothly and then added to the 96-well assay plate at 150 μL/well. Then, the plate was incubated at room temperature for 60 minutes while shaking the plate. The reaction solutions were suction-filtered. through a multiscreen 96-well filter plate (Millipore) which had been pre-treated with 0.3% polyethyleneimine, and the reaction was terminated by washing with a washing solution (50 mM Tris and 0.02% bovine serum albumin, pH 7.4) four times. The bottom of the microplate was dried at 60° C., and then 100 μL/well of MicroScint 20 (PerkinElmer) was dispensed to the wells. The top of the plate was sealed with TopSeal A (PerkinElmer), and the plate was shaken for 5 to 10 minutes. […]

The next data set concerns the target CYP3A4 (Homo sapiens (Human), UniProt P08684). Briefly: Inhibitory effect on CYP3A4 (Luciferin-IPA). The following applies: read-out: IC50 (CYP3A4 inhibition); 30-minute pre-incubation group.

From patent publication US10100030B2 (Kissei Pharmaceutical Co., Ltd., priority 2013, dated 2018) come the findings set out here.

Sequence of hERG channel (Q12809 whole entry, the tested form may be a part): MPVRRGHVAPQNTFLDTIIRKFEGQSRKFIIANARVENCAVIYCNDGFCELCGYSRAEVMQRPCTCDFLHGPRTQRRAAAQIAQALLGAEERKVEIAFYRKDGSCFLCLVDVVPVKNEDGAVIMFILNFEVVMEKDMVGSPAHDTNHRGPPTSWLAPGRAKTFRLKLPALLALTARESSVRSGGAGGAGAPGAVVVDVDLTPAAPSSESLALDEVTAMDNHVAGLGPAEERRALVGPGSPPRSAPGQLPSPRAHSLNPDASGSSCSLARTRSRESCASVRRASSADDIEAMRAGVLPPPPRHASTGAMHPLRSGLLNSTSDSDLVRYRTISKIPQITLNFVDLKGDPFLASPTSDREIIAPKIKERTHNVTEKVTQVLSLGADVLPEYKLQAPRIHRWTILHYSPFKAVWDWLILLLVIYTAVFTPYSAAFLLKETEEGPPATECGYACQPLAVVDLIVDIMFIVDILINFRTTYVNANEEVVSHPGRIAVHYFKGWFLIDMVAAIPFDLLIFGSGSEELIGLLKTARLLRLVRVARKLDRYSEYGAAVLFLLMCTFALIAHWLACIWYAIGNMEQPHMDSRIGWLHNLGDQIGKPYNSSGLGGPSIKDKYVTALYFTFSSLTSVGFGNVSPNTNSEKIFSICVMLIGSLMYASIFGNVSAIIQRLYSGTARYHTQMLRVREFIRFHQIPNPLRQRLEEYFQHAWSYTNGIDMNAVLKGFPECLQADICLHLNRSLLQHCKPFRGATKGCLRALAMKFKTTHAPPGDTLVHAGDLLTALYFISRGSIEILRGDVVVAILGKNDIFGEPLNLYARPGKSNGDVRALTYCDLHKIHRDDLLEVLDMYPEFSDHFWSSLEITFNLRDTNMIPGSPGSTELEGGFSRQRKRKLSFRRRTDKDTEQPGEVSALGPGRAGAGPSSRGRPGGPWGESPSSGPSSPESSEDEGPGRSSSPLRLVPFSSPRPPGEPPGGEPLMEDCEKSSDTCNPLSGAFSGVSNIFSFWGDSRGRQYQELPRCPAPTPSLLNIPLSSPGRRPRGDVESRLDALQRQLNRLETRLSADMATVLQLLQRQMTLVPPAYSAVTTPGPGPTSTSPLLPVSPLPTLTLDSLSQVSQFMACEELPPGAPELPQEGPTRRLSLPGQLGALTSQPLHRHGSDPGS
Sequence of human NK1 receptor (P25103 whole entry): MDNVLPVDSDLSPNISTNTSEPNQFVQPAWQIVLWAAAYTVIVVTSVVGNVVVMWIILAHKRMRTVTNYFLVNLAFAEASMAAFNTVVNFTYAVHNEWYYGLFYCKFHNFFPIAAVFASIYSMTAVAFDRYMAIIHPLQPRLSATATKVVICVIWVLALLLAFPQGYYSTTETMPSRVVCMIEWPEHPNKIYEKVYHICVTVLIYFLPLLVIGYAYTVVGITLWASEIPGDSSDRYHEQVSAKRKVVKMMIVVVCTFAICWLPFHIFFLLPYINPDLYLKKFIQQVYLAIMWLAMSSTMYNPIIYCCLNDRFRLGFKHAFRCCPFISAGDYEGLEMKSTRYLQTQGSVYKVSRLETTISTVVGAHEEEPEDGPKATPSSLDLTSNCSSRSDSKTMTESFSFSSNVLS
Sequence of CYP3A4 (P08684 whole entry): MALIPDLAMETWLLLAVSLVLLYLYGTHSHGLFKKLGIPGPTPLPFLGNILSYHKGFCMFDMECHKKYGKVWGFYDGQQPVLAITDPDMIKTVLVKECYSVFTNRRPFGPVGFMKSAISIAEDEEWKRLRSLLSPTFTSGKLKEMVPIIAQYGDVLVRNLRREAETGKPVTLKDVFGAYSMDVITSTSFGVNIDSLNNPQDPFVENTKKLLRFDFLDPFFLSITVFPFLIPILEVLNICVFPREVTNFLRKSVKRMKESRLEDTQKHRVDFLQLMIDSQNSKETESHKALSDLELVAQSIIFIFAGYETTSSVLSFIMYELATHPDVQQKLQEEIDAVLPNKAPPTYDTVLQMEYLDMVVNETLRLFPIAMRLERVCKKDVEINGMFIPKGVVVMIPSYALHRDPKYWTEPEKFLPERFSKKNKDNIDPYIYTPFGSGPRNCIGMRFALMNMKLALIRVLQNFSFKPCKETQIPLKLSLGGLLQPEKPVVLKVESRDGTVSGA
Method for CYP3A4: Enzyme reaction was performed by incubating in a potassium phosphate buffer solution (pH 7.4) containing 1 nM to 20 μM test compound, 3.2 mM magnesium chloride, 0.2 pmol human CYP3A4 (BD Biosciences), 0.5 mM reduced nicotinamide adenine dinucleotide phosphate (NADPH) and 3 μM Luciferin-IPA (Promega) at 37° C. for 10 minutes. The volume of the reaction solution was 50 μL/well. The 30-minute pre-incubation group was incubated at 37° C. for 30 minutes before adding the substrate, the Luciferin-IPA solution (12.5 μL/well). At the end of the enzyme reaction, 50 μL/well of a Luciferin detection reagent (Promega) was added to the wells, and the plate was left at room temperature for 20 minutes. Then, the emission intensities were measured with Infinite M1000 (TECAN). The enzyme activities (%) relative to the value of the group to which the test compound was not added were calculated.

For the molecule `Cc1cc(F)ccc1-c1cc(N2CCC(CC(=O)O)CC2)ncc1N(C)C(=O)C(C)(C)c1cc(C(F)(F)F)cc(C(F)(F)F)c1` [Example 1], at hERG channel, the “hERG current, % of value before application” value was 93.9 ± 2.7%. The concentration at 4 h in data set [1] was found to be 275 nM. In addition, the results for the IC50 on human NK1 receptor and on CYP3A4 were 0.00211 µM and 6.2 µM, respectively.
